Assay results from US20080090756A1, “Somatostatin agonists” (The Administrators of the Tulane Educational Fund, priority 2001, published 2008).
Bridge positions count the residues as written; N and C are the ends. Square brackets hold non-standard residues; d marks the D form. Peptide text beside a SMILES is read from it. NMeT = CN[C@H](C(=O)O)[C@@H](C)O

How the values were obtained:
hSSTR-1 = biological target: T1, hSSTR-1 (Homo sapiens, UniProt P30872); assay: Radioligand binding assay, cloned human somatostatin receptor type 1; conditions: CHO-K1 cell membranes, displacement of [125I]Tyr11-SRIF; mean ± SEM, single values = one experiment; read-out: Kd ± SEM hsst1
T1 construct: each containing the entire coding region of the full-length receptors; expressed in transfected cells
Excerpt: (§1) Functional Expression of the Cloned Human Somatostatin Receptors. The genomic clones containing the human somatostatin receptors (hSSTR-1 to hSSTR-5) (Yamada, Y., et al. al., Proc. Natl. Acad. Sci. USA. 1992, 89, 251-255; Yasuda, K., et al., J. Biol. Chem. 1992, 267, 20422-20428; Yamada, Y., et al., Mol. Pharmacol. 1992, 42, 2136-2142; Rohrer, L., et al., Proc. Natl. Acad. Sci. USA. 1993, 90, 4196-4200.) were kindly provided by Dr. Graeme I. Bell of the University of Chicago. The hSSTR-1, hSSTR-2, hSSTR-3, hSSTR-4 and hSSTR-5 cDNAs were isolated as a 1.5-kb PstI-XmnI fragment, 1.7-kb BamHI-HindIII fragment, 2.0-kb NcoI-HindIII fragment, 1.4-kb NheI-NdeI fragment, and a 1.2-kb HindIII-XbaI fragment, respectively, each containing the entire coding region of the full-length receptors. These fragments were independently subcloned into the corresponding restriction endonuclease sites in the mammalian expression vector pCMV5, downstream from the human cytomegalovirus (CMV) promoter, to produce the expression plasmids pCMV5/hSSTR-1, pCMV5/hSSTR-2, pCMV5/hSSTR-3, pCMV5/hSSTR-4 and pCMV5/hSSTR-5. For transfection into CHO-K1 cells, a plasmid, pRSV-neo (American Type Culture Collection, Rockville, Md.), carrying the neomycin mammalian cell selectable marker was added.
(§2) Receptor Expression and Transfection. Transfections were performed by the calcium phosphate method. CHO-K1 cells were maintained in α-minimum essential medium (α-MEM; Gibco) supplemented with 10% fetal calf serum and transfected with each of the expression plasmids using calcium phosphate precipitation. Clones that had inherited the expression plasmid were selected in α-MEM supplemented with 500 μg mL^−1 of geneticin (G418; Gibco). Independent CHO-K1 clones were picked by glass-ring cloning and expanded in culture in the selective media. Membranes were prepared from the isolated clones and hSSTR expression was initially assessed for binding with [^125I]Tyr^11-SRIF and [^125I]MK-678 (for SSTR-2).
(§3) Radioligand Binding Assays. Cell membranes of the 5 cells types were obtained from homogenates (Polytron setting 6, 15 sec) of the corresponding CHO-K1 cells, in ice-cold Tris-HCl (50 mM) and centrifuged (39000 g, 10 min×2), with an intermediate resuspension in fresh buffer. The final pellets were resuspended in Tris-HCl (10 mM) for assay. Aliquots of the membranes were incubated (30 min at 37° C.) with 0.05 nM [^125I]Tyr^11-SRIF (types 1, 3, 4, 5) or [^125I]MK-678 (type 2) in […] (pH 7.4) containing BSA (10 mg mL^−1); MgCl2 (5 mM), Trasylol (200 kIU mL^−1), bacitracin (0.02 mg mL^−1), and phenylmethanesulfonyl fluoride (0.02 mg mL^−1). The final assay volume was 0.3 mL and incubations were terminated by rapid filtration through GF/C filters pre-soaked in 0.3% poly(ethylenimine) using a Brandel rapid filtration module. Each tube and filter was then washed with aliquots of cold buffer (3×5 mL).
(§4) Specific binding is defined as the total radioligand bound minus that bound in the presence of 1.0 μM SRIF. The following total radioligand binding and non-specific binding (nsb) values were typically obtained with these assay systems: hSSTR-1, 7000 cpm total versus 3500 cpm nsb; hSSTR-2, 9000 cpm total versus 1000 cpm nsb; hSSTR-3, 8000 cpm total versus 1000 cpm nsb; hSSTR-4, 6000 cpm total versus 3500 cpm nsb; and hSSTR-5, 7500 cpm total versus 3500 cpm nsb. The binding affinities are expressed as Ki values ±SEM (nM) for each of the five receptor subtypes. Ki values derived for representative compounds of the instant invention are detailed in Table 2.
(§5) The binding affinities (Kd, nM) of all SRIF analogues were determined using their concentration-dependent displacement of ^125I-radiolabeled peptide ligands from membranes isolated from CHO cells transfected with the corresponding human somatostatin receptor.

hSSTR-4 = biological target: T2, hSSTR-4 (Homo sapiens, UniProt P31391); assay: Radioligand binding assay, cloned human somatostatin receptor type 4; conditions: CHO-K1 cell membranes, displacement of [125I]Tyr11-SRIF; mean ± SEM, single values = one experiment; read-out: Kd ± SEM hsst4
T2 construct: each containing the entire coding region of the full-length receptors; expressed in transfected cells
Excerpt: as §1, §2, §3, §4, §5

hSSTR-5 = biological target: T3, hSSTR-5 (Homo sapiens, UniProt P35346); assay: Radioligand binding assay, cloned human somatostatin receptor type 5; conditions: CHO-K1 cell membranes, displacement of [125I]Tyr11-SRIF; mean ± SEM, single values = one experiment; read-out: Kd ± SEM hsst5
T3 construct: each containing the entire coding region of the full-length receptors; expressed in transfected cells
Excerpt: as §1, §2, §3, §4, §5

[1] = test system: Culture Rat Pituitary Cells; assay type: cell-based; conditions: inhibition of GH release, dispersed rat anterior pituitary cells, GHRH(1-29)NH2 1 nM, 3 h at 37° C.; mean ± SEM of (n) dose response curves; read-out: Agonist IC50 ± SEM (n)
Description: SRIF Analogue Inhibition of GH Release. Anterior pituitaries from adult male rats were collected and dispersed by a previously described trypsin/DNase method. […] The cells were randomly plated at a density of approximately 200,000 cells/well (Costar cluster 24; Rochester Scientific Co., Rochester, N.Y.). […] In preparation for a hormone challenge, the cells were washed with medium 199 (Gibco, 3×1 mL). Each dose of a compound of this invention was tested in triplicate wells in a total volume of 1 mL medium 199 containing 1% BSA (fraction V; Sigma Chemical Co.). All wells contained GHRH(1-29)NH2 (1 nM). After incubation in an air/carbon dioxide atmosphere (95/5%, 3 h at 37° C.), the medium was removed and stored at −20° C. until assayed for hormone content. Growth hormone in media was measured by a standard double antibody RIA using components generously supplied by Dr. A. F. Parlow at the National Hormone and Pituitary Program (NHHP) Torrance, Calif. Agonist IC50's were calculated using Sigmaplot (Jandel Scientific, San Rafael, Calif.). Values are expressed as the mean IC50 (nM)±SEM from (n) separate dose-response curves.

hSSTR-2 = biological target: T4, hSSTR-2 (Homo sapiens, UniProt P30874); assay: Radioligand binding assay, cloned human somatostatin receptor type 2; conditions: CHO-K1 cell membranes, displacement of [125I]MK-678; mean ± SEM, single values = one experiment; read-out: Kd ± SEM hsst2
T4 construct: each containing the entire coding region of the full-length receptors; expressed in transfected cells
Excerpt: as §1, §2, §3, §4, §5

hSSTR-3 = biological target: T5, hSSTR-3 (Homo sapiens, UniProt P32745); assay: Radioligand binding assay, cloned human somatostatin receptor type 3; conditions: CHO-K1 cell membranes, displacement of [125I]Tyr11-SRIF; mean ± SEM, single values = one experiment; read-out: Kd ± SEM hsst3
T5 construct: each containing the entire coding region of the full-length receptors; expressed in transfected cells
Excerpt: as §1, §2, §3, §4, §5

T2 sequence (P31391 whole entry): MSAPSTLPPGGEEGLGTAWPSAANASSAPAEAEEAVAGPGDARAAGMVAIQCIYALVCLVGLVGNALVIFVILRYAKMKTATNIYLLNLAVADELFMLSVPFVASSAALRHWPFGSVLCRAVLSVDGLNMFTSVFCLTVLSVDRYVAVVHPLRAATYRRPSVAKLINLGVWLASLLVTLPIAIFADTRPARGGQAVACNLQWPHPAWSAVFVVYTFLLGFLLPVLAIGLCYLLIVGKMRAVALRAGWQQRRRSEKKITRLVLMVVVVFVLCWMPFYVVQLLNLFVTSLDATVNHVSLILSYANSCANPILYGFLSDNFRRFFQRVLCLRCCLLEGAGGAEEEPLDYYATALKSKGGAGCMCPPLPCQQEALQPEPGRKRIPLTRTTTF
T5 sequence (P32745 whole entry): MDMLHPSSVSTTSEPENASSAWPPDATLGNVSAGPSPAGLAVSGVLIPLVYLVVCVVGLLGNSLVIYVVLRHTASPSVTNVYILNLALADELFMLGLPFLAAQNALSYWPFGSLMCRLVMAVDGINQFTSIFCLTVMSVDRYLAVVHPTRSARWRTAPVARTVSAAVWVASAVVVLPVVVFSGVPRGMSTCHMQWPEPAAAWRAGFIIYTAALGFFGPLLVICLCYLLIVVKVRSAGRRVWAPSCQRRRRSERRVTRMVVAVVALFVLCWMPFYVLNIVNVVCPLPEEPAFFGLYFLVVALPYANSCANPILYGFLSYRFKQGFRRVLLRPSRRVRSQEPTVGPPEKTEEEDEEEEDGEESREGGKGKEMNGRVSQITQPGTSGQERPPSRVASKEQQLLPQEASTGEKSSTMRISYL
T1 sequence (P30872 whole entry): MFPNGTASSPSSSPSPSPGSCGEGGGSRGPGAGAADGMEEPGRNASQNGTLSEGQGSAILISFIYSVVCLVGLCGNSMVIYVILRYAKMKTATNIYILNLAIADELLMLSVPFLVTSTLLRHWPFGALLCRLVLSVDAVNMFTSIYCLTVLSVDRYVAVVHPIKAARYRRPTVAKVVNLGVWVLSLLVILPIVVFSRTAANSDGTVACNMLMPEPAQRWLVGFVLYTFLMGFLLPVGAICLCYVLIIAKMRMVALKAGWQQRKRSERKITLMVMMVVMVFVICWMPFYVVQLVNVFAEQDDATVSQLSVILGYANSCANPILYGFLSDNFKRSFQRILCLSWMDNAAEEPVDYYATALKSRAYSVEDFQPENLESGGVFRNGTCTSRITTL
T3 sequence (P35346 whole entry): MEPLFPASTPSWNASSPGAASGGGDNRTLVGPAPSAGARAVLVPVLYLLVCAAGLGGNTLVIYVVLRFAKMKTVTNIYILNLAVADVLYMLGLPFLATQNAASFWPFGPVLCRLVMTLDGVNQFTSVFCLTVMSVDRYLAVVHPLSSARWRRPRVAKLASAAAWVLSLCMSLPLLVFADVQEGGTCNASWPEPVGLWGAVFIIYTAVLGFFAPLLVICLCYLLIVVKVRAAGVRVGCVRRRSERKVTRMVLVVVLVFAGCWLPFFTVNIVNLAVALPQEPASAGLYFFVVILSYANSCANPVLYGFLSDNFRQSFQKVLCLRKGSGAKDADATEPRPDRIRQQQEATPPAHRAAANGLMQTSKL
T4 sequence (P30874 whole entry): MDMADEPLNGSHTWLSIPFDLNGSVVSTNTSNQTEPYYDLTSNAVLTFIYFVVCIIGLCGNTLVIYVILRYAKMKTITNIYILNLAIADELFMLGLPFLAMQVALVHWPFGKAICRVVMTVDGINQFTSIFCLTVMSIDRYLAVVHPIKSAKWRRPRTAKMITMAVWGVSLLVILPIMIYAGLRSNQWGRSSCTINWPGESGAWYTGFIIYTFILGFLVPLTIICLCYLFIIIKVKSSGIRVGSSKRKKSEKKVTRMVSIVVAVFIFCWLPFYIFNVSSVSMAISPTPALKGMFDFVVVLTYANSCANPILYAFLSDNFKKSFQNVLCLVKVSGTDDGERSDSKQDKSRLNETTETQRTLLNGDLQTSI

Row | Kd (hSSTR-1) | Kd (hSSTR-4) | Kd (hSSTR-5) | Kd (hSSTR-2) | Kd (hSSTR-3) | Molecule | IC50 [1]
1 | 1200 nM | > 1000 nM | 0.61 ± 0.36 nM |  |  | C[C@@H](O)[C@H](NC(=O)[C@@H]1CSSC[C@H](NC(=O)[C@H](N)Cc2ccccc2)C(=O)N[C@@H](Cc2ccccc2)C(=O)N(C)[C@H](Cc2c[nH]c3ccccc23)C(=O)N[C@@H](CCCCN)C(=O)N[C@@H]([C@@H](C)O)C(=O)N1)C(N)=O [Example 4, DPhe-cyclo(Cys-Phe-NMeDTrp-Lys-Thr-Cys)-Thr-NH2] | 
2 |  |  |  |  |  | C[C@H](N)C(=O)NCC(=O)N[C@H]1CSSC[C@@H](C(=O)O)NC(=O)[C@H](CO)NC(=O)[C@H]([C@@H](C)O)NC(=O)[C@H](Cc2ccccc2)NC(=O)[C@H]([C@@H](C)O)NC(=O)[C@H](CCCCN)NC(=O)[C@H](Cc2c[nH]c3ccccc23)NC(=O)[C@H](Cc2ccccc2)NC(=O)[C@H](Cc2ccccc2)NC(=O)[C@H](CC(N)=O)NC(=O)[C@H](CCCCN)NC1=O [SRIF-14] | 0.17 ± 0.054 nM
3 |  |  |  |  |  | SRIF-28 | 0.23 ± 0.052 nM
4 | > 1000 nM | > 1000 nM | > 1000 nM | > 1000 nM | > 1000 nM | C[C@@H](O)[C@H](NC(=O)[C@@H]1CSSC[C@H](NC(=O)[C@H](N)Cc2ccccc2)C(=O)N[C@@H](Cc2ccccc2)C(=O)N[C@H](Cc2c[nH]c3ccccc23)C(=O)N[C@@H](CCCCN)C(=O)N(C)[C@@H]([C@@H](C)O)C(=O)N1)C(N)=O [Example 6, DPhe-cyclo(Cys-Phe-DTrp-Lys-NMeThr-Cys)-Thr-NH2] | 
5 | 378 ± 119 nM | > 1000 nM | 23.7 nM | 1.04 ± 0.18 nM | 13 ± 0.5 nM | C[C@@H](O)[C@H](NC(=O)[C@@H]1CSSC[C@H](N(C)C(=O)[C@H](N)Cc2ccccc2)C(=O)N[C@@H](Cc2ccccc2)C(=O)N[C@H](Cc2c[nH]c3ccccc23)C(=O)N[C@@H](CCCCN)C(=O)N[C@@H]([C@@H](C)O)C(=O)N1)C(N)=O [Example 2, DPhe-cyclo(NMeCys-Phe-DTrp-Lys-Thr-Cys)-Thr-NH2] | 
6 | 622 ± 172 nM | 574 nM | 28.4 ± 19.3 nM | 56.2 ± 26.4 nM |  | C[C@@H](O)[C@H](NC(=O)[C@@H]1CSSC[C@H](NC(=O)[C@H](N)Cc2ccccc2)C(=O)N[C@@H](Cc2ccccc2)C(=O)N[C@H](Cc2c[nH]c3ccccc23)C(=O)N[C@@H](CCCCN)C(=O)N[C@@H]([C@@H](C)O)C(=O)N1C)C(N)=O [Example 7, DPhe-cyclo(Cys-Phe-DTrp-Lys-Thr-NMeCys)-Thr-NH2] | 

Row | Molecule | Kd (hSSTR-1) | Kd (hSSTR-4) | Kd (hSSTR-5) | Kd (hSSTR-2) | Kd (hSSTR-3) | IC50 [1]
7 | C[C@@H](O)[C@H](NC(=O)[C@@H]1CSSC[C@H](NC(=O)[C@@H](N)Cc2ccc(O)cc2)C(=O)N[C@@H](Cc2ccccc2)C(=O)N[C@H](Cc2c[nH]c3ccccc23)C(=O)N[C@@H](CCCCN)C(=O)N(C)[C@@H]([C@@H](C)O)C(=O)N1)C(N)=O [Example 15, Tyr-cyclo(Cys-Phe-DTrp-Lys-NMeThr-Cys)-Thr-NH2] (H-YCF[dW]K[NMeT]CT-NH2; disulfide 2-7; N-terminus assumed) | 1000 nM | ≥ 1000 nM | 92.79 ± 0.7 nM | 61.3 ± 6.95 nM | 440 ± 126 nM | 
